In test [1] the test system is SHHF rats. Briefly: Chronic treatment: glucose tolerance test (IVGTT) in SHHF rats. The test is classed as in vivo, rat. As to conditions: 20 mg/kg/d, 12 weeks; glucose 0.5 g/kg i.v.; control 710±37. The protocol:
At the end of treatment, the SHHF rats were anesthetized with sodium pentobarbital (50 mg/kg i.p.) after a fasting time of 18 h. The left femoral vein was catheterized to take blood samples for the different dosages. To perform the glucose tolerance test a solution of glucose (0.5 g/kg, i.v.) was administered and the plasma concentrations of glucose were determined after 3, 6, 10, 15, 30 and 45 minutes.
Male SHHF rats (spontaneously hypertensive, heart failure) aged 12 weeks were used for this study (Charles River breeding centre, L'Arbresle, France).
Compound 1 was administered in the drinking water for 12 weeks at a dose of 20 mg/kg/d (n=17). Water consumption was regularly measured to adjust the concentration of compound 1. Non-treated control SHHF rats had access to normal water (n=10).
A glucose solution of 0.5 g/kg was administered via intravenous route. The plasma concentration of glucose was evaluated using a glucometer before injection into animals that had fasted 18 h, and then 3, 6, 10, 15, 30 and 45 min after administration of the glucose (Accu Check Go, Roche Diagnostics, Meylan, France). Area under curve values (AUC) were then determined to compare the groups.

In test [2] the test system is Sprague-Dawley rats. The experiment in a line: Acute i.v. treatment: renal sympathetic nerve activity and hemodynamic parameters in anesthetized rats. Type of test: in vivo, rat. As to conditions: 10 mg/kg i.v. As for the experimental part: Male Sprague-Dawley rats (10 weeks; Laboratoires Charles River, L'Arbresle, France) were anesthetized with urethane (1.5 g/kg i.p., supplemented with 0.1 g/kg i.v. if necessary) and placed on a hot blanket to maintain rectal temperature at 37° C.
The left renal nerve was carefully isolated and a major branch of the nerve was placed on a bipolar platinum-iridium electrode insulated with silicone gel (604A and B; Wacker Chemie, Munich, Germany). Throughout the experiment the rat was ventilated by means of a tracheal cannula (7-8 ml/kg×72 cycles/min) with a mixture of oxygen and air (˜8%-20%).
Arterial pressure was measured by connecting the arterial catheter to a pressure transducer (TNF-R; Ohmeda, Bilthoven, Holland) coupled to an amplifier (model 13-4615-52; Gould, Cleveland, Ohio).
Renal sympathetic nerve activity (RSNA) was amplified (×50,000), the pass-band filtered (300-3000 Hz; Model P-511J; Grass, Quincy, Mass.) and rectified with a home-built analogue rectifier including a low frequency filter with a cut-off frequency of 150 Hz.
The 2 parameters were continuously recorded using a computer equipped with an analogue-digital converter (model AT-MIO-16; National Instruments, Austin, Tex.) and LabVIEW 5.1 software (National Instruments).
Arterial pressure and RSNA were recorded before (baseline) and after administering compound 1 (10 mg/kg, i.v.). At the end of the recording session, chlorisondamine, a ganglionic blocker, was administered (2.5 mg/kg, i.v.) to evaluate the level of background noise which was then subtracted from all RSNA data for subsequent analyses. At the end of the experiment, the rats were euthanized with an intravenous overdose of sodium pentobarbital.

The subject of test [3] is α2-adrenergic receptors. Briefly: Binding assay of the α2-adrenergic receptors on CHO cell membranes with [3H]RX821002. Further details: species or system human. The protocol: These membranes (30 μg proteins/ml for CHO-hα2A and CHO-hα2B, 100 μg protein/ml for CHO-hα2C) were incubated for 60 min at ambient temperature in binding buffer (33 mM Tris-HCl, 1 mM EDTA, pH 7.5) in a final volume of 500 μL containing 0.8 or 1 or 2 nM [^3H]RX821002 respectively for the adrenergic receptors hα2A, hα2B and hα2C.
Incubation was halted by rapid vacuum filtration through GF/C glass fibre filters followed by three successive washings in ice-cold binding buffer.
Non-specific binding was determined using 10 μM phentolamine.
The competitive assays were analyzed by non-linear regression using the GraphPad programme.
Ki values were determined using the method described by Cheng and Prussof (Cheng, Y. C.; Prusoff, W. H. Relationship between the Inhibition Constant (Ki) and the Concentration of Inhibitor which causes 50 percent Inhibition (I50) of an Enzymatic Reaction. Biochem. Pharmacol. 1973, 22, 3099-3108).

Test [4] concerns the target I1 receptor (Rattus norvegicus, UniProt Q4G017). The experiment in a line: Competitive binding to [125I]-PIC in membranes of PC12 cells. As to conditions: PC12 cell membranes. As for the experimental part:
The PC-12 cells were cultured in 75-cm^2 dishes in DMEM medium (1000 mg/l glucose) supplemented with 10% FBS inactivated by treatment at 56° C., 100 U/ml penicillin and 100 μg/ml streptomycin. When the cells reached confluence (3 to 4 days after the start of culture) they were harvested and passaged via the action of 0.25% trypsin for 2 minutes at 37° C. For the specific binding assays, the medium was removed and the cells stored by freezing to −20° C. until use with the membrane preparation.
The frozen PC12 cells were recovered by scraping in ice-cold Tris-HEPES buffer (5 mM Tris-HEPES, pH 7.7, 0.5 mM EDTA, 0.5 mM EGTA and 0.5 mM MgCl2) and Potter homogenized. After centrifuging at 75,000 g for 20 min, the residue was washed in ice-cold Tris-HEPES buffer then again centrifuged. This last operation was performed twice. […]
The reaction was halted by rapid vacuum filtration through GF/B fibre glass filters treated with 0.3% PEI using filtering equipment of Brandel® type, followed by three rapid washings of the filters using 3 ml of ice-cold 50 mM Tris-HCl buffer, pH 7.4. The radioactivity retained on the dried filters was determined using a Minaxi gamma counter (Packard, Meriden, CT, USA). Non-specific binding was determined by [^125I]PIC binding in the presence of 10 μM PIC and represented about 43% of total radioactivity.

Chain of I1 receptor (Q4G017 whole entry, looked up): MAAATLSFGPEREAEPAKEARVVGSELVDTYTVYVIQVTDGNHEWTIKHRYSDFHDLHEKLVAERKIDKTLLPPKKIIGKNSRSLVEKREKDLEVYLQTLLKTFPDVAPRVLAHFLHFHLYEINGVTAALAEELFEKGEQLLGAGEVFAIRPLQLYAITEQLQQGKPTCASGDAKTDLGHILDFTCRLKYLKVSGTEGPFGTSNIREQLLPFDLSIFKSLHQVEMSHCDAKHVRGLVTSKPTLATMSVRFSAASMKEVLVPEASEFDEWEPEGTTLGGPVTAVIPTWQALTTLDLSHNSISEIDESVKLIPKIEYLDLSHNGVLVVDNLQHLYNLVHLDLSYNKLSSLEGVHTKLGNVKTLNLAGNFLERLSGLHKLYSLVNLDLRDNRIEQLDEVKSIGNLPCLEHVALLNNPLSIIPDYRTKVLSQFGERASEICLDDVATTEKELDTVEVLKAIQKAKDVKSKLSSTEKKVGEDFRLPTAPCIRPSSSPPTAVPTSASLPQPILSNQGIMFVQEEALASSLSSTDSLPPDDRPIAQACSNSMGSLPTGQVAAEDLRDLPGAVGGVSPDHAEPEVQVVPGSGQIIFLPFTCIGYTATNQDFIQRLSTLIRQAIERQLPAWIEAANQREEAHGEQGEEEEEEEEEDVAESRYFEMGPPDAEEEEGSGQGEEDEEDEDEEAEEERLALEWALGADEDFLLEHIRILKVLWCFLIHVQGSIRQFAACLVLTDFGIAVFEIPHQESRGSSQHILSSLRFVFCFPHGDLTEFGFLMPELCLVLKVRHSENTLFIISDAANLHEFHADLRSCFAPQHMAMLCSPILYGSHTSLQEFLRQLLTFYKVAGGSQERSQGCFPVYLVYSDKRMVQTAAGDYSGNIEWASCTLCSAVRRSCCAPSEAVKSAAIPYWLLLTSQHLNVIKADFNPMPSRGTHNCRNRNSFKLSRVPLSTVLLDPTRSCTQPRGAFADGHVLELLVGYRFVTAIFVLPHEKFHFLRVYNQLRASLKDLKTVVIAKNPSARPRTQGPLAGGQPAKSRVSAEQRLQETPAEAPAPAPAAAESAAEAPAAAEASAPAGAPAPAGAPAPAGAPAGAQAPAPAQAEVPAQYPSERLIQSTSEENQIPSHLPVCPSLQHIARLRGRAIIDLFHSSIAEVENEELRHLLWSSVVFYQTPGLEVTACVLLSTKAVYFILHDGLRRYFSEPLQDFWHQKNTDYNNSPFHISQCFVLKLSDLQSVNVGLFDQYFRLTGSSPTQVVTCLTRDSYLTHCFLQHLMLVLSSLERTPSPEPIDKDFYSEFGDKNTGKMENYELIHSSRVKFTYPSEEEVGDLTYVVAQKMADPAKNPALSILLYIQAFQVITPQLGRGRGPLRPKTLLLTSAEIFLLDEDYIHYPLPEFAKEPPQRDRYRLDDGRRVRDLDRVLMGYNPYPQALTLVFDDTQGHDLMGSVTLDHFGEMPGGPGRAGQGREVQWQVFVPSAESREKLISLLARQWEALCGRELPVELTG

Usually Ki stands for the dissociation constant of the complex between target and ligand, obtained from inhibition or displacement. For the molecule `Cc1c(Cl)cccc1NC1=NCC(C)C1.Cl` (stereo not shown) [Compound 1, (3-Chloro-2-methyl-phenyl)-(4-methyl-4,5-dihydro-3H-pyrrol-2-yl)-amine hydrochloride], in test [1], the “AUC after the glucose tolerance test” value worked out at 556 ± 20 mmol·min/L. Also, in test [2], the “duration of the reduction in renal sympathetic activity, arterial pressure and heart rate” value is given as “more than one hour”. In addition, the “reduction in renal sympathetic activity” value in test [2] (urethane-anesthetized rats) was 50%. Further, the “diastolic arterial pressure (DAP)” value in test [2] (vs. 83.2±4 baseline) is 58.6±3.4 mmHg. The “mean arterial pressure (MAP)” value in test [2] (vs. 108.±3.4 baseline) is 77.4±3.6 mmHg. In addition, in test [2] (vs. 141.7±2.3 baseline), the “systolic arterial pressure (SAP)” value came out at 105.3±3 mmHg. In addition, in test [2] (vs. 331.4±14 baseline), the heart rate came out at 288.4±10.3 bpm. In test [3] (CHO cells), this molecule returned a Ki of over 10 µM. In addition, in test [3] (concentration of 10^−5 M), the “displacement at the α2-adrenergic receptor” value is given as “No significant displacement”. Moreover, the “share of sites with high affinity” value in test [4] was 55%.

For the origin of these results see US9303019B2, “Amino-pyrroline derivatives, and use thereof in the prevention and/or treatment of metabolic syndrome” (UNIVERSITE DE STRASBOURG, priority 2012, dated 2016).
